Data as given in patent publication US20200325543A1, “DIAGNOSTIC METHOD” (TOLREMO THERAPEUTICS AG, priority 2017, published 2020).
“And” between values parts separate entries of the source, which are not always exact repeats. Equal values may be shown once. Where a name gives a salt, the structure may show the parent alone.

Test system: SOX2
Test: Screen of a library of FDA-approved drugs for SOX2 antibody staining in A375 cells treated with PLX4720 and AZD6244
Conditions: for cor. loess / raw / norm: A375 cells, 5 uM test drug with 1 uM PLX4720 and 0.5 uM AZD6244, 24 h; for cor. loess: normalized and geometry-corrected (loess) signal; for raw: raw signal (ratio of FL2 SOX2 antibody and FL3 nuclear staining), screen run in duplicate; for norm: signal after plate normalization; for z: Z-test against negative controls (DMSO), single dose 5 uM

Compound `CC1(C)O[C@@H]2C[C@H]3[C@@H]4C[C@H](F)C5=CC(=O)C=C[C@]5(C)[C@H]4[C@@H](O)C[C@]3(C)[C@]2(C(=O)CO)O1` [FLUNISOLIDE] has a cor. loess of 0.6279, a raw of 0.9737 and a norm of 0.6807. It also gave a z of 5.388.
In the case of `CC1(C)O[C@@H]2C[C@H]3[C@@H]4C[C@H](F)C5=CC(=O)C=C[C@]5(C)[C@@]4(F)[C@@H](O)C[C@]3(C)[C@]2(C(=O)CO)O1` [FLUOCINOLONE ACETONIDE], the cor. loess is reported as 0.4202, the raw is reported as 0.9791 and the norm is reported as 0.434. The z was 3.463.
`CC(=O)OCC(=O)[C@@]12OC(C)(C)O[C@@H]1C[C@H]1[C@@H]3C[C@H](F)C4=CC(=O)C=C[C@]4(C)[C@@]3(F)[C@@H](O)C[C@@]12C` [FLUOCINONIDE] showed a cor. loess of 0.4293, a raw of 0.9797 and a norm of 0.4123. For the same compound, the z was 3.538.
Compound `CCC(=O)O[C@]1(C(=O)SCF)[C@H](C)C[C@H]2[C@@H]3C[C@H](F)C4=CC(=O)C=C[C@]4(C)[C@@]3(F)[C@@H](O)C[C@@]21C` [FLUTICASONE PROPIONATE] has a cor. loess of 0.6875, a raw of 0.9704 and a norm of 0.713. For the same compound, the z was 4.067.
Work on `C[C@]12CCC(=O)C(O)=C1CC[C@@H]1[C@@H]2CC[C@]2(C)C(=O)CC[C@@H]12` [FORMESTANE] yielded a cor. loess of 0.4179, a raw of 0.98 and a norm of 0.3818. The z was 4.633.
`COc1ccc(/C=C\c2cc(OC)c(OC)c(OC)c2)cc1OP(=O)([O-])[O-].[Na+].[Na+]` [Fosbretabulin (Combretastatin A4 Phosphate (CA4P)) Disodium] was tested, and the cor. loess was 0.3981, the raw was 0.9814 and the norm was 0.3844. It also gave a z of 4.256.
Compound `CN(C)c1ccc(C(=C2C=CC(=[N+](C)C)C=C2)c2ccc(N(C)C)cc2)cc1` [GENTIAN VIOLET] has a cor. loess of 1.077, a raw of 0.9601 and a norm of 1.09. It also gave a z of 8.875.
Work on `CC1(C)O[C@@H]2C[C@H]3[C@@H]4CCC5=CC(=O)CC[C@]5(C)[C@@]4(F)[C@@H](O)C[C@]3(C)[C@]2(C(=O)CCl)O1` [HALCINONIDE] yielded a cor. loess of 0.2632, a raw of 0.9853 and a norm of 0.2586. It also gave a z of 3.581.
In the case of `CCCCC(CC)CN1CN(CC(CC)CCCC)CC(C)(N)C1` (stereo not shown) [HEXETIDINE], the cor. loess is reported as 0.3155, the raw is reported as 0.9834 and the norm is reported as 0.2651. For the same compound, the z was 3.497.
`CCC(=O)O[C@]1(C(=O)CCl)[C@@H](C)C[C@H]2[C@@H]3C[C@H](F)C4=CC(=O)C=C[C@]4(C)[C@@]3(F)[C@@H](O)C[C@@]21C` [Halobetasol Propionate] was tested, and the cor. loess was 0.4055, the raw was 0.9809 and the norm was 0.3998. The z was 4.335.
`COC(=O)C[C@](O)(CCCC(C)(C)O)C(=O)O[C@@H]1C(OC)=C[C@]23CCCN2CCc2cc4c(cc2[C@H]13)OCO4` [Homoharringtonine] showed a cor. loess of 1.181, a raw of 0.9576 and a norm of 1.161. It also gave a z of 8.354.
Compound `O=c1[nH]c(=O)n([C@H]2C[C@H](O)[C@@H](CO)O2)cc1I` [IDOXURIDINE] has a cor. loess of 0.715, a raw of 0.9726 and a norm of 0.7167. The z was 6.136.
Work on `CC(C)Oc1ccc2c(=O)c(-c3ccccc3)coc2c1` [IPRIFLAVONE] yielded a cor. loess of 0.3885, a raw of 0.9807 and a norm of 0.3563. For the same compound, the z was 4.307.
`CC(=O)O[C@H]1C[C@H](O[C@H]2[C@@H](O)C[C@H](O[C@H]3[C@@H](O)C[C@H](O[C@H]4CC[C@@]5(C)[C@H](CC[C@@H]6[C@@H]5C[C@@H](O)[C@]5(C)[C@@H](C7=CC(=O)OC7)CC[C@]65O)C4)O[C@@H]3C)O[C@@H]2C)O[C@H](C)[C@H]1O[C@@H]1O[C@H](CO)[C@@H](O)[C@H](O)[C@H]1O` [LANATOSIDE C] was tested, and the cor. loess was 1.074 and 1.059, the raw was 0.9723 and 0.963 and the norm was 0.4949.
Compound `Cc1c(OCC(F)(F)F)ccnc1C[S+]([O-])c1nc2ccccc2[nH]1` (stereo not shown) [LANSOPRAZOLE] has a cor. loess of 0.2732, a raw of 0.9819 and a norm of 0.3712. For the same compound, the z was 3.717.
`Cc1cc(Nc2ncc(Cl)c(Nc3ccccc3S(=O)(=O)C(C)C)n2)c(OC(C)C)cc1C1CCNCC1` [LDK378] gave a cor. loess of 3.065, a raw of 0.8857 and a norm of 3.411. It also gave a z of 23.92.
`Cc1oncc1C(=O)Nc1ccc(C(F)(F)F)cc1` [LEFLUNOMIDE] gave a cor. loess of 0.3194, a raw of 0.9816 and a norm of 0.3831. For the same compound, the z was 4.346.
In the case of `CCN1CCN(Cc2ccc(Nc3ncc(F)c(-c4cc(F)c5nc(C)n(C(C)C)c5c4)n3)nc2)CC1` [LY2835219], the cor. loess is reported as 1.234, the raw is reported as 0.963 and the norm is reported as 1.024. It also gave a z of 4.755.
`CN1C[C@H](CNC(=O)OCc2ccccc2)C[C@@H]2c3cccc4c3c(cn4C)C[C@H]21` [METERGOUNE] showed a cor. loess of 0.4209, a raw of 0.9793 and a norm of 0.4023. The z was 4.666.
`Cc1cc(C(C)(C)CC(C)(C)C)ccc1OCCOCC[N+](C)(C)Cc1ccccc1.[Cl-]` [METHYLBENZETHONIUM CHLORIDE] gave a cor. loess of 0.2976, a raw of 0.9826 and a norm of 0.3484. For the same compound, the z was 4.049.
`CN(C)c1ccc2nc3ccc(=[N+](C)C)cc-3sc2c1` [METHYLENE BLUE] was tested, and the cor. loess was 0.5193, the raw was 0.9751 and the norm was 0.5531. The z was 3.072.
For `C[C@H]1C[C@@H]2[C@H]([C@@H](O)C[C@@]3(C)[C@H]2CC[C@]3(O)C(=O)COC(=O)CCC(=O)O)[C@@]2(C)C=CC(=O)C=C12` [METHYLPREDNISOLONE SODIUM SUCCINATE], the cor. loess was 0.4008, the raw was 0.9806 and the norm was 0.4166. The z was 5.452.
Compound `O=C(Nc1ccc([N+](=O)[O-])cc1Cl)c1cc(Cl)ccc1O` [NICLOSAMIDE] has a cor. loess of 0.7224, a raw of 0.97 and a norm of 0.7648. For the same compound, the z was 9.828.
Compound `COC(=O)Nc1nc2ccc(C(=O)c3cccs3)cc2[nH]1` [NOCODAZOLE] has a cor. loess of 0.5311, a raw of 0.9766 and a norm of 0.5009. It also gave a z of 3.142.
With `CC(=O)c1cc2c(o1)C(=O)c1ccccc1C2=O` [Napabucasin] the cor. loess was 0.8204, the raw was 0.9658 and the norm was 0.8869. It also gave a z of 6.402.
`CCOc1cc2ncc(C#N)c(Nc3ccc(OCc4ccccn4)c(Cl)c3)c2cc1NC(=O)/C=C/CN(C)C` [Neratinib (HKI-272), Neratinib] was tested, and the cor. loess was 4.182, the raw was 0.9044 and the norm was 4.156. For the same compound, the z was 16.11.
Work on `COC(=O)c1ccc2c(c1)NC(=O)/C2=C(\Nc1ccc(N(C)C(=O)CN2CCN(C)CC2)cc1)c1ccccc1` [Nintedanib (BIBF 1120), Nintedanib] yielded a cor. loess of 0.5485, a raw of 0.9744 and a norm of 0.6171. For the same compound, the z was 4.28.
Work on `CCCOc1ccc2nc(NC(=O)OC)[nH]c2c1` [OXIBENDAZOLE] yielded a cor. loess of 0.4781, a raw of 0.9763 and a norm of 0.5578. For the same compound, the z was 6.505.
With `CCNC1(C(N)=O)CCN(c2ncnc3c2nc(-c2ccccc2Cl)n3-c2ccc(Cl)cc2)CC1` [Otenabant (CP-945598) HCl] the cor. loess was 1.069, the raw was 0.9665 and the norm was 0.8357. For the same compound, the z was 4.116.
